Data as given in US20250179166A1, “TREATMENT OF BRAIN METASTASIS” (Ramot at Tel-Aviv University Ltd., priority 2022, published 2025).

Experiments:
MDA-MB-231 cells = assay: Breast cancer Transwell migration; conditions: vs control
131/4-5B1 melanoma cells = assay: Wound healing migration assay; assay type: cell-based, human; conditions: vs cells in astrocytes SFM
Description: (§1) Wound Healing Assay. To study the role of MCP-1 in mediating melanoma cells migration, (WM115 and 131/4-5B1 cells) (5×10^4 cells/well) were plated onto 96-well ImageLock tissue culture plate and allowed to grow until confluence. Next, a wound was created in each well using a 96-pin wound-making tool (WoundMaker, Essen BioScience, Sartorius, USA), and dislodged cells were washed with PBS. Melanoma cells were treated for 48 h with astrocytes CM, human astrocytes CM treated with siRNA:PEI polyplexes (500 nM siRNA targeting MCP-1 or scramble siRNA), astrocytes CM supplemented with 10 µg/mL anti-MCP-1 neutralizing antibody, astrocytes SFM supplemented with 1 μg/mL rh/mMCP-1. To monitor wound closure, the plate was placed in the IncuCyte™ ZOOM Live Cell Imaging system (Essen Bioscience, Sartorius, USA) and phase contrast images were taken every 2 h intervals over a course of 48 h using 10× objective. Results were calculated by the IncuCyte™ Software and presented as relative wound density (relative to the background density of the wound at time 0).

WM115 melanoma cells = assay: Wound healing migration assay; assay type: cell-based, human; conditions: vs cells in astrocytes SFM
Description: as §1

[1] = system: melanoma cells (D4M.3A, B16-F10, A375, 131/4-5B1 and WM115); assay: Transwell migration of melanoma cells towards bindarit-treated astrocytes; conditions: addition of rh-MCP-1; p=0.006 (astrocytes), p=0.115 (CM)
Description: Transwell® Migration Assay. […] In order to assess melanoma migration in co-culture with astrocytes, human astrocytes (1×10^5 cells/well) or murine astrocytes (2×10^5 cells/well) were seeded in the lower chambers of the Transwell® inserts. […] All migrated cells were then fixed and stained (Hema 3 Stain System; Fisher Diagnostics, fixed and stained (Hema 3 Stain System; Fisher Diagnostics, USA). The stained migrated cells were imaged using EVOS FL Auto microscope (Life Technologies, USA) using 10× objective, brightfield illumination.

MDA-MB-231 spheroids = assay: Breast cancer 3D tumor spheroids; conditions: BC cells alone or with astrocytes, microglia and PBMCs
Description: Multicellular tumor spheroids (MCTS). MCTS were prepared using the hanging-drop method as previously shown (24). […] The sprouting of MCTS was analyzed using ImageJ 1.52v software, and the results were presented as total area covered or % of total area covered per spheroid (pixel density) per well.
The plates were incubated for 7 days at 37° C. in 5% CO2 and cell fluorescence was followed and quantified by Cytation™ C10.

[2] = system: 4T1 breast cancer brain metastases; assay: Orthotopic breast cancer brain metastases (BCBM) model; assay type: in vivo, BALB/C mice; conditions: compared to the control group
Description: Breast Cancer Brain Metastases (BCBM). To generate primary breast rumors prior to BCBM, 4T1 cells (3×10^5 cells/100 μl) were inoculated orthotopically into the mammary fat pad of immunocompetent BALB/C mice. Seven days later, primary lesions were resected. One week post primary tumor resection, 4T1 cells (2×10^4 cells/2 μl) were intracranially inoculated stereotactically to the striatum of the same mice (previously bearing the primary tumors). […] Mice body weight change was monitored three times a week, and tumor growth was followed using 4.7T/1H magnetic resonance imaging (MRI, MR Solutions, UK). PBMCs activation.

| Compound | MDA-MB-231 migration towards MCP-1 recombinant protein (MDA-MB-231 cells) | increase of melanoma cell migration (wound healing) (131/4-5B1 melanoma cells) [%] | increase of melanoma cell migration (wound healing) (WM115 melanoma cells) [%] | rescue of melanoma cell migration in presence of bindarit-treated astrocytes [1] | spheroid size (MDA-MB-231 spheroids) | systemic disease relapse (primary tumor recurrence or extracranial metastases) [2] |
| --- | --- | --- | --- | --- | --- | --- |
| rh-MCP-1: Recombinant human/murine MCP-1 | migrated more | 27 | 5 | rescued the inhibition of melanoma cell migration |  |  |
| COc1ccc(C2CC(c3c(O)cc(C)oc3=O)=NCCS2)c(OC)c1 (stereo not drawn) [SELPi, 3-[7-(2,4-Dimethoxyphenyl)-2,3,6,7-tetrahydro-1,4-thiazepin-5-yl]-4-hydroxy-6-methyl-2H-pyran-2-one] |  |  |  |  | significant decrease | did not show any improvement in relapse |
